Measured values taken from publication PMC6099493, “Discovery of Matrinic Thiadiazole Derivatives as a Novel Family of Anti-Liver Fibrosis Agents via Repression of the TGFβ/Smad Pathway” (Molecules : A Journal of Synthetic Chemistry and Natural …, 2018).
Counter-ions that a name gives are not always drawn.

Assays:
COL1A1 promotor = COL1A1 promotor single luciferase reporter gene model in LX-2 (LX2-COL) cells; format: cell-based, human; conditions: Homo sapiens, LX-2 cells treated simultaneously with TGFβ1 and compound, read-out: Inhibition Percentage (inhibition rate of COL1A1 promotor's activity in LX2 cells)
[1] = MTT cytotoxicity / cell survival assay; format: cell-based; conditions: human, HepG2 cells, read-out: CC50 (cytotoxic concentration required to inhibit HepG2 cell growth by 50%)
Description: (§1) A single luciferase reporter gene detection model was applied to screen the inhibitory effects towards COL1A1 promotor of all target compounds in human hepatic stellate LX-2 cells at the concentration of 40 μM, taking EGCG and compound 1 as the positive controls. The LX2-COL monoclone cell line was treated simultaneously with TGFβ1 and a target compound [13]. The cytotoxicity was determined using MTT assay in HepG2 cells.
(§2) The cell survival was evaluated by MTT assay. HepG2 cells were seeded at density of 6 × 10^3 cells/well in 96-well plate. Cells were treated with various concentrations of matrinic derivate until the cells at 50% confluence. After 24 h of incubation, 20 µL of the MTT (5 mg/mL) solution was added into each plate and incubated for 4 h at 37 °C, 5% CO2. Subsequently, the culture supernatant was replaced with 150 µL DMSO to dissolve the formazan crystal. The absorbance at 570 nm was measured using a microplate reader (ELx800, BioTek Instruments, Winooski, VT, USA).

HepG2 cells = assay: MTT cytotoxicity / cell survival assay; format: cell-based; conditions: read-out: CC50 (cytotoxic concentration required to inhibit HepG2 cell growth by 50%)
Description: as §1, §2

α-SMA protein = α-SMA protein level by western blot in LX-2 cells; format: cell-based; conditions: Homo sapiens, TGFβ1 2 ng/mL, read-out: α-SMA protein level inhibition rate
Description: (§3) α-SMA is a more commonly recognized indicator for liver fibrosis, and it could be induced by a stimulation of TGFβ1 [22], therefore, the amounts of α-SMA were also evaluated.
(§4) LX-2 cells were cultured as described above. Briefly, cells were washed with phosphate-buffered saline (PBS) and were lysed in radioimmunoprecipitation assay (RIPA) lysis for 30 min in 4 °C; the supernatant was collected after centrifugation at 12,000× g, 4 °C for 15 min. Equal amounts of protein were quantified with Bradford assay, separated by SDS-PAGE and transferred to polyvinylidene difluoride membrane. The membranes were blocked for one hour at room temperature in PBST containing 5% milk and probed with specific first antibodies overnight at room temperature. Membrane was washed 3 times by PBST, followed by horseradish peroxidase-conjugated secondary antibodies and GAPDH. The proteins were visualized using chemiluminescence reagents.

[2] = test system: Smad2 / phosphorylated Smad2 (TGFβ/Smad pathway); assay: Smad2 and p-Smad2 levels by western blot in LX-2 cells; format: cell-based, human
Description: Considering the key role of TGFβ/Smad pathway in activating COL1A1, the effects of the three compounds on Smad and phosphorylated Smad were then evaluated.
as §4

COL1A1 mRNA = COL1A1 mRNA level by real-time PCR in TGFβ1-stimulated LX-2 cells; format: cell-based, human; conditions: 80 μM, TGFβ1 2 ng/mL
Description: (§5) Next, compounds 6i, 6l and 6n were chosen as the key compounds to verify their inhibitory effects against COL1A1. LX-2 cells were stimulated with TGFβ1 (2 ng/mL), and then treated with compounds 6i, 6l and 6n (80 μM) respectively, taking 1 as the control. Their anti-COL1A1 effects were evaluated on RNA level by real-time PCR amplification. […] Then their anti-COL1A1 effects were investigated on the protein level by western blot assays.
(§6) LX-2 cells were seeded in 6-well plate, cultured in DMEM, containing 10% fetal bovine serum (FBS) in a 5% CO2 atmosphere at 37 °C. And serum-free culture was required until the cells at 90–95% confluence. After 24 h, cells were treated with TGFβ1 (2 ng/mL) and matrinic derivatives (80 μM) for 24 h. Total RNA from the LX-2 cells was extracted using Trizol reagent, purified by NucleoSpin RNA Clean-up. Reverse transcription was performed with a Transcriptor first strand cDNA synthesis kit. The cDNA was then analysis by ABI 7500 Fast Real-Time PCR System (ThermoFisher Scientific, Singapore) using TaqMan probes of TGFβ1, COL1A1, α-SMA, and GAPDH (sequence reserved by ABI, Foster City, CA ,USA) and FastStart Universal Probe master mix (Roche, Indianapolis, IN, USA).

α-SMA mRNA = α-SMA mRNA level by real-time PCR in TGFβ1-stimulated LX-2 cells; format: cell-based, human; conditions: 80 μM, TGFβ1 2 ng/mL
Description: as §3, §6

COL1A1 protein = COL1A1 protein level by western blot in LX-2 cells; format: cell-based; conditions: Homo sapiens, TGFβ1 2 ng/mL, read-out: COL1A1 protein level inhibition rate
Description: as §5, §4

Kunming mice = conditions: female, mouse, in vivo, po, 7 days
Description: To evaluate the safety profile of 6n, an acute toxicity test was performed in Kunming mice. Compound 6n was given orally in a single-dosing experiment at 125, 250 or 500 mg·kg^−1, respectively. The mice were closely monitored for 7 days. To our delight, it gave the median lethal dose (LD50) value over 500 mg·kg^−1, indicating a good safety profile in vivo.
Female Kunming mice with weight of 20.0 (±1.0 g) were obtained from the Institute of Laboratory Animal Science (Beijing, China). Animals were cared according to the institutional guidelines of the Institute of Materia Medica, CAMS&PUMC (00000364). The mice were fed with regular rodent chow and housed in an air conditioned room. The mice were randomly divided into different groups with 6 mice each. Each compound was given orally in a single-dosing experiment at 0, 250, 500, 750 or 1000 mg·kg^−1 (ddH2O as control), respectively. The mice were closely monitored for 7 days. Body weight as well as survival was monitored.

Row | SMILES | inhibition at 40 µM (COL1A1 promotor) | CC50 at 24 h [1] | CC50 (HepG2 cells) | inhibition at 80 µM (α-SMA protein) | Effect on Smad level [2] | Effect on phosphorylation level of Smad2 (in words) [2] | Inhibition rate of Smad2 phosphorylation level [2] | COL1A1 mRNA level inhibitory rate (COL1A1 mRNA) | α-SMA mRNA level inhibitory rate (α-SMA mRNA) | inhibition at 80 µM (COL1A1 protein) | median lethal dose (LD50) (Kunming mice) | melting point
1 | Cc1ccc(S(=O)(=O)N2CC3CCCN4CCCC(C34)C2CCCc2nnc(Nc3ccccc3)s2)cc1 (stereo not shown) [Compound 6e, 12-N-p-Methylbenzenesulfonyl-3′-(N-phenyl-5-amino-1,3,4-thiadiazol-2-yl)-matrinic propane] | 69% | > 82.6 µM | 82.5 µM |  |  |  |  |  |  |  |  | 
2 | Cc1ccc(CN2CC3CCCN4CCCC(C2CCCc2nnc(N(C)C)s2)C34)cc1 (stereo not shown) [Compound 6n, 12-N-p-Methylbenzyl-3′-(N,N-dimethyl-5-amino-1,3,4-thiadiazol-2-yl)-matrinic propane hydrochloride] | 39.7% | > 320 µM |  | 104% | did not affect the Smad level | repressed the phosphorylation level of Smad2 significantly | 49.8% | 78.4% | 87.6% | 47.6% | over 500 mg·kg^−1 | 
3 | Nc1nnc(CCCC2C3CCCN4CCCC(CN2Cc2ccccc2)C34)s1 (stereo not shown) [Compound 6i, 12-N-Benzyl-3′-(5-amino-1,3,4-thiadiazol-2-yl)-matrinic propane] | 47.8% | > 320 µM |  | 64.9% | did not affect the Smad level | repressed the phosphorylation level of Smad2 significantly |  | 46.1% | 75.1% | 65% |  | 170 to 171 °C
